# From patent US20240158439A1, “INHIBITORS OF ANTIGEN PRESENTATION BY MHC CLASS II HLA-DRB1*15:01 MOLECULES WITH ENHANCED METABOLIC STABILITY” (Provid Pharmaceuticals Inc., priority 2021, published 2024)
# Values joined by “and” are separate entries in the source; they are usually repeats but may differ in a detail not shown here. Equal entries are not always repeated. Where two headings read alike, the source gives them in different places. Where a SMILES comes first, the peptide text is derived from it. [ ]: non-standard residue; d: D form. The star is where a group is joined. Phe(3,4-Cl2) = N[C@@H](Cc1ccc(Cl)c(Cl)c1)C(=O)O; NH(CH2CH2O)4Me = COCCOCCOCCOCCN*; Tic = O=C(O)[C@@H]1Cc2ccccc2CN1; Chg = N[C@H](C(=O)O)C1CCCCC1; NHCH2CH2OMe = COCCN*
# Assays:
# [1] = molecular target: T1, HLA-DRB1*15:01 (Homo sapiens, UniProt P01903+P01911); experiment: HLA II binding assay (competitive, biotinylated reference peptide)
# T1 construct: endogenous in cells; host or cells: EBV homozygous cell lines (human)
# [2] = Mouse pharmacokinetics/metabolism study; type: in vivo, C57BL/6J mice
# Description: The pharmacokinetics/metabolism study was performed in non-fasted C57BL/6J mice. Dose formulation was prepared on the day of treatment, using 10% v/v DMSO solution and 90% sterile water for injection as vehicle. Blood samples were collected at 0.25, 0.5, 1, 2, 4, 6, 8, 12 and 24 hr post-dose (n=9 mice/group, staggered sampling with 3 mice/time point). At each time point, under isoflurane anesthesia approximately 70 μL of blood was collected through retro orbital plexus puncture and transferred into a pre-labeled tube. 50 μL of blood was taken from the prelabeled tube and it was added into a labelled tube containing 200 μL of acetonitrile to precipitate proteins. Immediately, blood samples were vortexed to facilitate mixing of acetonitrile with the blood. Samples were kept on dry ice at −70° C. until analysis. [table] Bioanalysis was performed using fit-for-purpose analytical method using LC-MS/MS method for the quantification of PV-267 (Parent) or PV-3212 (Parent) and PV-623 (Metabolite) in mice blood samples and the linearity range was 2 to 2500 ng/mL for PV-267 (Parent), PV-3212 (Parent) and PV-623 (metabolite). The blood pharmacokinetic parameters for PV-267 and PV-3212 were calculated by using standard non-compartmental analysis (Phoenix software, version 6.4, Pharsight Corporation, Mountain View, Calif. 94040/USA) using the sparse sampling model and linear trapezoidal with linear interpolation calculation method. Pharmacokinetic Parameters for PV-623 (metabolite) were not calculated due to insufficient blood concentrations.
# [3] = Pharmacokinetics of PV-267 in rats and mice
# [4] = system: EAE in DRB1*15:01 transgenic mice; settings: cited from earlier work
# [5] = system: Goodpasture antigen (α3(IV)NC1); settings: Huynh et al. 2019; cited from earlier work
# [6] = system: BC3 T cells + autologous hPBMCs from DRB1*15:01-positive MS patient; experiment: Human cellular immunology assay (IFN-gamma ELISPOT); type: cell-based; settings: inhibition of IFN-gamma response, FIG. 2
# Description: After washing and blocking, autologous APCs (irradiated PBMCs) pretreated with different concentrations of the DRB1*15:01 inhibitors for 45 min were added on the plate (0.3−0.5×10^6 cells per well), followed by the addition of Ag or positive control using PHA (Sigma-Aldrich) or anti-human CD3 mAb (Bio X Cell; OKT3) along with BC3 T cells or enriched PBMC T cells (4,000-20,000 cells per well). Plates were incubated at 37° C. for 24 h, then washed and biotinylated anti-human IFN-γ mAb (Thermo Scientific; B133.5) was added at 4° C., overnight. After that, plates were incubated with Streptavidin AP (Invitrogen) and developed with BCIP/NBT Phosphatase substrate (KPL) after washing. After developing of the plates, image analysis of ELISPOT assays was performed on a Series 2 ImmunoSpot analyzer and software (CTL) as described previously (Kawamura, K., et al., (2008) J. Immunol. 181: 3202-3211).
# [7] = Table 2, DRB1*15:01 binding, unit inferred, nM, read-out: Avg IC50
# [8] = C57BL/6J, mouse, in vivo, ip, 10 mg/kg
smiles,measurement,setting,value
"CC(=O)N[C@H](C(=O)N[C@H](C(=O)N[C@@H](CCCNC(=N)N)C(=O)N1Cc2ccccc2C[C@H]1C(=O)N[C@@H](Cc1ccccc1)C(N)=O)C1CCCCC1)C(C)C [PV-267, Ac-V-(Chg)-R-(Tic)-F—NH2] (Ac-V[Chg]R[Tic]F-NH2)",IC50,[1]; read-out: binding IC50,2.5 nM
same,ratio of metabolite PV-623 to parent at 0.25 hr,"[2]; 10 mg/kg IP, 0.25 hr",0.61 and 0.67
same,ratio of metabolite PV-623 to parent at 0.5 hr,"[2]; 10 mg/kg IP, 0.5 hr",0.73
same,level at 0.25 h,"[2]; C57BL/6J, mouse, plasma, ip, 10 mg/kg, parent, text b45, 0.25 hr, read-out: plasma concentration at 0.25 hr",275 ng/mL
same,level at 0.5 h,"[2]; C57BL/6J, mouse, plasma, ip, 10 mg/kg, parent, text b45, 0.5 hr, read-out: plasma concentration at 0.5 hr",91.5 ng/mL
same,Cmax,"[2]; C57BL/6J, mouse, whole blood, single IP 10 mg/kg, observed at 0.25 hr post dose, read-out: Parent peak blood concentration",275 ng/mL
same,metabolism to the acid PV-623,[2]; mouse PK studies,rapidly metabolized to PV-623
same,Mean Plasma Concentration 0.25 hr,"[2]; parent compound, 10 mg/kg IP, 0.25 hr",275 ng/mL
same,Mean Plasma Concentration 0.5 hr,"[2]; parent compound, 10 mg/kg IP, 0.5 hr",91.5 ng/mL
same,in vivo conversion to C-terminal acid PV-623,[3],significantly converted to the C-terminal acid PV-623
same,efficacy in animal models of multiple sclerosis,[4],efficacy in animal models of multiple sclerosis
same,autoreactivity to the Goodpasture antigen,[5],attenuates autoreactivity to the Goodpasture antigen
"CC(=O)N[C@H](C(=O)N[C@H](C(=O)N[C@@H](CCCNC(=N)N)C(=O)N1Cc2ccccc2C[C@H]1C(=O)N[C@@H](Cc1ccccc1)C(=O)O)C1CCCCC1)C(C)C [PV-623, Ac-V-(Chg)-R-(Tic)-F—OH] (Ac-V[Chg]R[Tic]F-OH)",IC50,[1]; [7],26 nM
same,Mean Plasma Concentration 0.25 hr,"[2]; acid metabolite PV-623 after PV-267 10 mg/kg IP, 0.25 hr",169 ng/mL
same,Mean Plasma Concentration 0.5 hr,"[2]; acid metabolite PV-623 after PV-267 10 mg/kg IP, 0.5 hr",65.3 ng/mL
same,Mean Plasma Concentration 0.25 hr,"[2]; acid metabolite PV-623 after PV-3212 10 mg/kg IP, 0.25 hr",8.54 ng/mL
same,Mean Plasma Concentration 0.5 hr,"[2]; acid metabolite PV-623 after PV-3212 10 mg/kg IP, 0.5 hr",3.57 ng/mL
"COCCOCCOCCOCCNC(=O)[C@H](Cc1ccccc1)NC(=O)[C@@H]1Cc2ccccc2CN1C(=O)[C@H](CCCNC(=N)N)NC(=O)[C@@H](NC(=O)[C@@H](NC(C)=O)C(C)C)C1CCCCC1 [PV-3213, Ac-V-(Chg)-R-(Tic)-F—NH(CH2CH2O)4CH3] (Ac-V[Chg]R[Tic]F-{NH(CH2CH2O)4Me})",potency compared to PV-267 in human cellular assay,[6],at least as potent as the unsubstituted PV-267
"COCCNC(=O)[C@H](Cc1ccccc1)NC(=O)[C@@H]1Cc2ccccc2CN1C(=O)[C@H](CCCNC(=N)N)NC(=O)[C@@H](NC(=O)[C@@H](NC(C)=O)C(C)C)C1CCCCC1 [PV-3212, Ac-V-(Chg)-R-(Tic)-F—NH(CH2CH2O)1CH3] (Ac-V[Chg]R[Tic]F-NHCH2CH2OMe)",potency compared to PV-267 in human cellular assay,[6],more potent than the simple amide (PV-267)
same,Cmax,[2]; [8],741 ng/mL
same,half-life,[2]; [8],3.23 h
same,level at 0.25 h,[2]; [8],741 ng/mL
same,level at 0.5 h,[2]; [8],195 ng/mL
same,metabolism to the acid PV-623,"[2]; mouse, in vivo",remarkably stable
same,Mean Plasma Concentration 0.25 hr,"[2]; mouse, in vivo, ip, 10 mg/kg",741 ng/mL
same,Mean Plasma Concentration 0.5 hr,"[2]; mouse, in vivo, ip, 10 mg/kg",195 ng/mL
"CC(=O)N[C@H](C(=O)N[C@H](C(=O)N[C@@H](CCCNC(=N)N)C(=O)N1Cc2ccccc2C[C@H]1C(=O)N[C@@H](Cc1ccc(Cl)c(Cl)c1)C(N)=O)C1CCCCC1)C(C)C [PV-593] (Ac-V[Chg]R[Tic][Phe(3,4-Cl2)]-NH2)",IC50,[1]; [7],4.1 nM
